Experimental data taken from patent publication US20260200913A1, “ATROPISOMERS OF MAT2A INHIBITORS” (IDEAYA Biosciences, Inc., priority 2022, published 2026).

Assays:
[1] = test system: HCT116 MTAP null cells; test: HCT116 MTAP-Null Cell Line Viability; type: cell-based; conditions: final count 4-5 days post treatment (IncuCyte, GFP), normalized to DMSO wells
Protocol: Preparation: HCT116 WT and MTAP null cells were cultured in DMEM/F12+10% FBS at 37° C. Left the media, dissociation reagent, and PBS in room temperature at least 1 hr prior to start.
Process: Washed cells with 5 mL of PBS, aspirate the PBS. Added 1 mL of dissociation reagent (Trypsin, Gibco #25200114) and left at room temperature for 2-5 mins. When cells were detached, added 5 ml of fresh media. Cells were collected into a 10 mL tube and centrifuged at 1000 rpm for 5 minutes at room temperature. Aspirated media, resuspended in 5 mL fresh media, and counted on Bio-Rad TC20 Cell Counter. Based on the count and the table below, added cells to a clear flat bottom, TC-treated 384-well plate (Corning #3764).
Treated the cells the next day post splitting. Used a 10 mM stock of compound.
Process: Compound treatment was applied to cells using a Tecan D300e digital dispenser with a high concentration 20 micromolar and 3-fold serial dilutions over 9 concentrations in triplicate on a 384-well plate.
4-5 days post treatment, used a Live-Cell Analysis System (IncuCyte®) suitable for reading GFP to do a final count. Raw data were normalized based on the average value of the DMSO wells on each plate.

[2] = biological target: T1, Human MAT2A (Homo sapiens, UniProt P31153); test: Phosphate Sensor Fluorescence Assay (MAT2A enzyme inhibition); type: biochemical; conditions: 5.8 nM MAT2A (1-395), 500 uM L-methionine, 500 uM ATP, 1 hour at room temperature, fluorescence at 450 nm
T1 construct: Human MAT2A: Cepter, amino acids 1-395 Clone ID 334; purchased Cepter Clone ID 334, lot 00023-148
T1 sequence (P31153 whole entry, the tested form may be a part): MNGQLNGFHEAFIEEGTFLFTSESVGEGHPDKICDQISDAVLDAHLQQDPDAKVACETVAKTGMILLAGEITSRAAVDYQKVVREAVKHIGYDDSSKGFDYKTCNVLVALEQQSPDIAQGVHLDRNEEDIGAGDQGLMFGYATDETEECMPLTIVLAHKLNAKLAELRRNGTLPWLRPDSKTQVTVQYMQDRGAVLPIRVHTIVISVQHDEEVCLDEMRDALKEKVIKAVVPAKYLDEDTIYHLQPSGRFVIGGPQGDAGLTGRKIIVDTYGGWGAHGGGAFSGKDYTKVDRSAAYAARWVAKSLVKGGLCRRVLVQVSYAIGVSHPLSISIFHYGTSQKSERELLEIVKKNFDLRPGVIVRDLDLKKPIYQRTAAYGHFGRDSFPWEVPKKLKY
Protocol: MAT2A enzyme is incubated with a test compound in DMSO or DMSO and its substrates (L-methionine and ATP) in a microtiter plate. The enzymatic reaction is stopped by the addition of Working Phosphate Sensor Mixture. The plate is analyzed for fluorescence at 450 nm. The high control (DMSO with enzyme and its substrates) gives high fluorescence which represents no inhibition of enzymatic activity while the low control (DMSO with MAT2A substrates and no enzyme) gives low fluorescence which represents full inhibition of enzymatic activity. […]
For the assay, a mixture of 1 mM L-methionine/1 mM ATP (2× final pre-stopped concentration) in assay buffer: MAT2A (2× final pre-stopped concentration) in Assay Buffer and Working Phosphate Sensor Mixture (1.5 uM Phosphate Sensor/30 mM EDTA in Assay Buffer, which is 3× final concentrations) were prepared. […] The plate was read for fluorescence at 450 nm after exciting at 430 nm on a Tecan Spark microplate reader.
Percent inhibition was calculated in Chemical and Biological Information System (CBIS), (ChemInnovation Software Inc.). […]

IC50 [2] [nM] | Structure (SMILES) | EC50 [1] [nM]
60 | Nc1nc(=O)n(-c2ccccc2Cl)c2nc(C(F)(F)F)ccc12 (atropisomer, axis not shown) [Atropisomer Ib] | 149
3 | Nc1nc(=O)n(-c2ccccc2Cl)c2nc(C(F)(F)F)ccc12 (single isomer, unassigned) [Atropisomer Ia] | 20
